According to US8119624B2, “Fused phenyl amido heterocyclic compounds” (Pfizer Inc., priority 2006, dated 2012):
Like-named read-outs stand apart in the source and are kept apart here.

Molecular target: T1, Full-length glucokinase (beta cell isoform) (Homo sapiens, UniProt P35557)
T1 construct: Full-length glucokinase (beta cell isoform) was His-tagged at N-terminus; His tag (N); made in house
T1 sequence (P35557 1-465): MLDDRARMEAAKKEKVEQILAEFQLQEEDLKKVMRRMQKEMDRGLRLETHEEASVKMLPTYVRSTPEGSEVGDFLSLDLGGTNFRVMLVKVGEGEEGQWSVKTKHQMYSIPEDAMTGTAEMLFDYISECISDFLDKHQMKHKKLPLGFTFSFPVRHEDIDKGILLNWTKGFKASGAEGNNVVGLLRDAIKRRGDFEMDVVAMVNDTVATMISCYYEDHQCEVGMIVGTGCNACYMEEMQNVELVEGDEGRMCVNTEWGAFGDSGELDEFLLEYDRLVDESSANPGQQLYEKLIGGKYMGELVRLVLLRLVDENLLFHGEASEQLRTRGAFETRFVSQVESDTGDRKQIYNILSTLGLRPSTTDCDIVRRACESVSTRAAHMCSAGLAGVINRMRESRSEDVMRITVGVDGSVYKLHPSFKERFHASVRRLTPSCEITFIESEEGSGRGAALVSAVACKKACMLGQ
Test: Glucokinase biochemical assay (PK/LDH-coupled, NADH depletion at 340 nm): % activation, EC50, % max activation
Details: 5 mM glucose; for activation at 10 µM: read-out: % Activation at 10 uM; for EC50: read-out: EC50; for Emax: fitted maximum activation, read-out: % Max Activation
Procedure: Full-length glucokinase (beta cell isoform) was His-tagged at N-terminus and purified by a Ni column followed by size exclusion chromatography. Glucose was obtained from Calbiochem, and other reagents were from Sigma.
All assays were performed in a Corning 96-well plate using Spectramax PLUS spectrophotometer (Molecular Devices) at room temperature. The final assay volume was 100 uL. The buffer conditions used in this assay were as follows: 50 mM HEPES, 5 mM glucose, 1 mM ATP, 2 mM MgCl2, 0.7mM NADH, 2 mM DTT, 1 Unit/mL PK/LDH, 0.2 mM phosphoenolpyruvate, 25 mM KCl. Tested compound in DMSO solution was added to the buffer and mixed well by a plate shaker for 1 minute. The final concentration of DMSO introduced into the assay was 1%.
Glucokinase was added to the buffer mixture to initiate the reaction in the presence and absence of compound. Reaction was monitored by absorbance at 340nm due to the depletion of NADH. The initial reaction velocity was measured by the slope of a linear time course of 200-900 sec.
The percentage of activation was calculated by the following equation: % Activation=(Va/Vo−1)×100;
wherein each of Va and Vo is defined as the initial reaction velocity in the presence and absence of the tested compound, respectively.
The GK activities were measured as a function of compound concentrations.

[1] = 10 uM compound, % Activation=(Va/Vo−1)×100

Cn1ncc(NC(=O)c2cc(Oc3ccc(S(=O)(=O)C4CC4)c(F)c3)c3c(c2)OC(C)(C)C3)n1 [Example 140, 4-(4-Cyclopropanesulfonyl-3-fluoro-phenoxy)-2,2-dimethyl-2,3-dihydro-benzofuran-6-carboxylic acid (2-methyl-2H-[1,2,3]triazol-4-yl)-amide]
activation at 10 µM [1]: 196% | EC50 (GK activation): 170 nM | Emax: 236%

CN(C)C(=O)c1ccc(Oc2cc(C(=O)Nc3ccon3)cc3c2CC(C)(C)O3)cc1 [Example 158, 4-(4-Dimethylcarbamoyl-phenoxy)-2,2-dimethyl-2,3-dihydro-benzofuran-6-carboxylic acid isoxazol-3-ylamide]
activation at 10 µM [1]: 115% | EC50 (GK activation): 470 nM | Emax: 106%

CN(CCO)C(=O)c1ccc(Oc2cc(C(=O)Nc3ccn(C)n3)cc3c2CC(C)(C)O3)cc1F [Example 66, 4-{3-Fluoro-4-[(2-hydroxy-ethyl)-methyl-carbamoyl]-phenoxy}-2,2-dimethyl-2,3-dihydro-benzofuran-6-carboxylic acid(1-methyl-1H-pyrazol-3-yl)-amide]
activation at 10 µM [1]: 149% | EC50 (GK activation): 410 nM | Emax: 168%

CN(C)C(=O)c1ccc(Oc2cc(C(=O)Nc3ccn(C)n3)cc3occc23)cc1F [Example 341, 4-(4-(Dimethylcarbamoyl)-3-fluorophenoxy)-N-(1-methyl-1H-pyrazol-3-yl)benzofuran-6-carboxamide]
activation at 10 µM [1]: 59% | EC50 (GK activation): 1700 nM | Emax: 69%

Cc1ccc(NC(=O)c2cc(Oc3ccc(C(=O)N(C)C)c(F)c3)c3sccc3c2)nc1 [Example 365, 7-(4-(Dimethylcarbamoyl)-3-fluorophenoxy)-N-(5-methylpyridin-2-yl)benzo[b]thiophene-5-carboxamide]
activation at 10 µM [1]: 4%

Cn1ccc(NC(=O)c2cc(Oc3ccc(S(C)(=O)=O)c(F)c3)c3c(c2)OC(C)(C)C3)n1 [Example 114, 4-(3-Fluoro-4-methanesulfonyl-phenoxy)-2,2-dimethyl-2,3-dihydro-benzofuran-6-carboxylic acid (1-methyl-1H-pyrazol-3-yl)-amide]
activation at 10 µM [1]: 156% | EC50 (GK activation): 203 nM | Emax: 164%

Cn1ccc(NC(=O)c2cc(OCc3cc(O)nc(-c4cnccn4)n3)c3c(c2)OC(C)(C)C3)n1 [Example 88, 4-(6-Hydroxy-2-pyrazin-2-yl-pyrimidin-4-ylmethoxy)-2,2-dimethyl-2,3-dihydro-benzofuran-6-carboxylic acid (1-methyl-1H-pyrazol-3-yl)-amide]
activation at 10 µM [1]: 38.2%

Cn1ccc(NC(=O)c2cc(Oc3ccc(S(C)(=O)=O)cc3)c3cc(CN4CCCC4=O)oc3c2)n1 [Example 318, N-(1-Methyl-1H-pyrazol-3-yl)-4-[4-(methylsulfonyl)phenoxy]-2-[(2-oxopyrrolidin-1-yl)methyl]-1-benzofuran-6-carboxamide]
activation at 10 µM [1]: 91.3% | EC50 (GK activation): > 10000 nM

Cc1cc(NC(=O)c2cc(Oc3ccc(C(=O)N(C)C)cc3)c3c(c2)OC(C)(C)C3)no1 [Example 154, 4-(4-Dimethylcarbamoyl-phenoxy)-2,2-dimethyl-2,3-dihydro-benzofuran-6-carboxylic acid (5-methyl-isoxazol-3-yl)-amide]
activation at 10 µM [1]: 36.3% | EC50 (GK activation): 4000 nM | Emax: 54%

COCC1Cc2c(Oc3ccc(C(=O)N4CCC4)cc3)cc(C(=O)Nc3ccn(C)n3)cc2O1 (stereo not drawn) [Example 208, 4-[4-(Azetidine-1-carbonyl)-phenoxy]-2-methoxymethyl-2,3-dihydro-benzofuran-6-carboxylic acid (1-methyl-1H-pyrazol-3-yl)-amide]
activation at 10 µM [1]: 83.9% | EC50 (GK activation): 710 nM | Emax: 98%

CCc1nc(O)cc(COc2cc(C(=O)Nc3ccn(C)n3)cc3c2CC(C)(C)O3)n1 [Example 104, 4-(2-Ethyl-6-hydroxy-pyrimidin-4-ylmethoxy)-2,2-dimethyl-2,3-dihydro-benzofuran-6-carboxylic acid (1-methyl-1H-pyrazol-3-yl)-amide]
activation at 10 µM [1]: 149% | EC50 (GK activation): 1800 nM | Emax: 134%

CS(=O)(=O)c1ccc(Oc2cc(C(=O)Nc3ccccn3)cc3scnc23)cc1 [Example 372, 4-[4-(Methylsulfonyl)phenoxy]-N-pyridin-2-yl-1,3-benzothiazole-6-carboxamide]
activation at 10 µM [1]: 29.3%

Cc1ccc(NC(=O)c2cc(Oc3ccc(C(=O)N(C)C)c(F)c3)c3cc(C)oc3c2)nc1 [Example 273, 4-(4-(Dimethylcarbamoyl)-3-fluorophenoxy)-2-methyl-N-(5-methylpyridin-2-yl)benzofuran-6-carboxamide]
activation at 10 µM [1]: 12.7%

Cc1cc2cc(Oc3ccc(S(C)(=O)=O)cc3)cc(C(=O)Nc3ccccn3)c2o1 [Example 5, 5-(4-Methanesulfonyl-phenoxy)-2-methyl-benzofuran-7-carboxylic acid pyridin-2-ylamide]
activation at 10 µM [1]: -6.3%

Cn1ccc(NC(=O)c2cc(Oc3ccc(C(=O)N4CCC4)c(F)c3)cc3c2CC(C)(C)O3)n1 [Example 197, 6-[4-(Azetidine-1-carbonyl)-3-fluoro-phenoxy]-2,2-dimethyl-2,3-dihydro-benzofuran-4-carboxylic acid (1-methyl-1H-pyrazol-3-yl)-amide]
activation at 10 µM [1]: 77.6% | EC50 (GK activation): > 10000 nM

Cn1ccc(NC(=O)c2cc(Oc3ccc(C(=O)N4CCOCC4)cc3)c3c(c2)OC(C)(C)C3)n1 [Example 47, 2,2-Dimethyl-4-[4-(morpholine-4-carbonyl)-phenoxy]-2,3-dihydro-benzofuran-6-carboxylic acid(1-methyl-1H-pyrazol-3-yl)-amide]
activation at 10 µM [1]: 140% | EC50 (GK activation): 1050 nM | Emax: 156%

Cn1ccc(NC(=O)c2cc(Oc3ccc(-c4ncon4)nc3)c3c(c2)OC(C)(C)C3)n1 [Example 182, 2,2-Dimethyl-4-(6-[1,2,4]oxadiazol-3-yl-pyridin-3-yloxy)-2,3-dihydro-benzofuran-6-carboxylic acid (1-methyl-1H-pyrazol-3-yl)-amide]
activation at 10 µM [1]: 244% | EC50 (GK activation): 290 nM | Emax: 237%

Cn1ccc(NC(=O)c2cc(Oc3ccc(S(C)(=O)=O)cc3)c3c(c2)OC(CF)C3)n1 (stereo not drawn) [Example 224, 2-Fluoromethyl-4-(4-methanesulfonyl-phenoxy)-2,3-dihydro-benzofuran-6-carboxylic acid (1-methyl-1H-pyrazol-3-yl)-amide]
activation at 10 µM [1]: 142% | EC50 (GK activation): 2300 nM | Emax: 160%

Cn1ccc(NC(=O)c2cc(Oc3cnc(C(=O)N4CCC4)cn3)c3c(c2)OC(C)(C)C3)n1 [Example 396, 4-[5-(Azetidine-1-carbonyl)-pyrazin-2-yloxy]-2,2-dimethyl-2,3-dihydro-benzofuran-6-carboxylic acid(1-methyl-1H-pyrazol-3-yl)-amide]
EC50 (1 mM ATP, room temperature): 360 nM | activation at 10 µM (compound at 10 uM, 1 mM ATP, room temperature): 204% | Emax (1 mM ATP): 212%

CN(C)C(=O)c1ccc(Oc2cc(C(=O)Nc3ccn(C)n3)cc3c2CC(C)(CO)O3)cc1F (stereo not drawn) [Example 229, 4-(4-Dimethylcarbamoyl-3-fluoro-phenoxy)-2-hydroxymethyl-2-methyl-2,3-dihydro-benzofuran-6-carboxylic acid (1-methyl-1H-pyrazol-3-yl)-amide]
activation at 10 µM [1]: 101% | EC50 (GK activation): 120 nM | Emax: 97%

Cc1cc2c(Oc3ccc(S(C)(=O)=O)cc3)cc(C(=O)Nc3ccn(C)n3)cc2o1 [Example 271, 4-(4-(Methylsulfonyl)phenoxy)-2-methyl-N-(1-methyl-1H-pyrazol-3-yl)benzofuran-6-carboxamide]
activation at 10 µM [1]: 148% | EC50 (GK activation): 1300 nM | Emax: 184%

CN(C)C(=O)c1ccc(Oc2cc(C(=O)Nc3ccc(CO)cn3)cc3c2CC(C)(C)O3)cc1F [Example 145, 4-(4-Dimethylcarbamoyl-3-fluoro-phenoxy)-2,2-dimethyl-2,3-dihydro-benzofuran-6-carboxylic acid (5-hydroxymethyl-pyridin-2-yl)-amide]
activation at 10 µM [1]: 47.2% | EC50 (GK activation): 72.7 nM | Emax: 46.5%

Cn1ncc(NC(=O)c2cc(OC3CN(S(C)(=O)=O)C3)c3c(c2)OC(C)(C)C3)n1 [Example 194, 4-(1-Methanesulfonyl-azetidin-3-yloxy)-2,2-dimethyl-2,3-dihydro-benzofuran-6-carboxylic acid (2-methyl-2H-[1,2,3]triazol-4-yl)-amide]
activation at 10 µM [1]: 146% | EC50 (GK activation): 5000 nM | Emax: 263%
